The target in assay [1] is Tissue factor (Homo sapiens) (UniProt P13726). Put plainly: Inhibition of TNF-alpha-induced tissue factor activity in HUVEC at 10 uM preincubated for 4 hrs assessed after 4 hrs of TNFalpha challenge by one stage clotting assay. Type of assay: cell-based.
Assay [2] has the same target. Nature of the assay: Inhibition of LPS-induced tissue factor activity in HUVEC at 10 uM preincubated for 4 hrs assessed after 4 hrs of LPS challenge by one stage clotting assay. The assay is classed as cell-based.
Assay [3] has the same target. Put plainly: Inhibition of TNF-alpha-induced tissue factor activity in HUVEC at 6 uM preincubated for 4 hrs assessed after 4 hrs of TNFalpha challenge by one stage clotting assay. The assay is classed as cell-based.
For assay [4] the target is unchanged. Put plainly: Inhibition of LPS-induced tissue factor activity in HUVEC at 6 uM preincubated for 4 hrs assessed after 4 hrs of LPS challenge by one stage clotting assay. The assay is classed as cell-based.
Assay [5] shares this target. Put plainly: Inhibition of TNF-alpha-induced tissue factor activity in HUVEC at 30 uM preincubated for 4 hrs assessed after 4 hrs of TNFalpha challenge by one stage clotting assay.
Assay [6] has the same target. Put plainly: Inhibition of LPS-induced tissue factor activity in HUVEC at 30 uM preincubated for 4 hrs assessed after 4 hrs of LPS challenge by one stage clotting assay. The assay is classed as cell-based.
For assay [7] the target is unchanged. The note with it: HUVEC, 1 uM.
Description: Inhibition of LPS-induced tissue factor activity in HUVEC at 1 uM preincubated for 4 hrs assessed after 4 hrs of LPS challenge by one stage clotting assay
The target is the same in assay [8]. The note with it: HUVEC, 3 uM.
Description: Inhibition of TNF-alpha-induced tissue factor activity in HUVEC at 3 uM preincubated for 4 hrs assessed after 4 hrs of TNFalpha challenge by one stage clotting assay
Assay [9] shares this target. Nature of the assay: Inhibition of LPS-induced tissue factor activity in HUVEC at 0.3 uM preincubated for 4 hrs assessed after 4 hrs of LPS challenge by one stage clotting assay.
Assay [10] relates to HUVEC. Nature of the assay: Effect on TNF-alpha-induced NF-kappaB activation in HUVEC preincubated for 4 hrs assessed as increase in p65 level after 0.5 hrs of TNFalpha challenge by electrophoretic shift mobility assay. Type of assay: cell-based. As to conditions: Homo sapiens.
Assay [11] deals with HUVEC. Nature of the assay: Effect on TNF-alpha-induced NF-kappaB activation in HUVEC preincubated for 4 hrs assessed as increase in c-Rel level after 0.5 hrs of TNFalpha challenge by electrophoretic shift mobility assay. Type of assay: cell-based. The note with it: Homo sapiens.
The subject of assay [12] is HUVEC. Nature of the assay: Increase in acetylated histone H4 level in HUVEC preincubated for 4 hrs assessed after 0.5 hrs of TNFalpha challenge by Western blot. Type of assay: functional, cell-based. As to conditions: Homo sapiens.
Assay [13] deals with HUVEC. Nature of the assay: Increase in acetylated histone H3 level in HUVEC preincubated for 4 hrs assessed after 0.5 hrs of TNFalpha challenge by Western blot. The note with it: Homo sapiens. Type of assay: functional, cell-based. (Immunoblotting shows a protein as a band on a membrane.)
Assay [14] deals with HUVEC. Nature of the assay: Effect on TNF-alpha-induced IkappaB degradation in HUVEC at 1 uM preincubated for 4 hrs assessed after 60 mins of TNFalpha challenge by Western blotting. Type of assay: functional, cell-based. As to conditions: Homo sapiens.
The test system of assay [15] is HUVEC. Nature of the assay: Effect on TNF-alpha-induced TFkappaB activation assessed as p65/c-Rel binding to TFkappaB in HUVEC preincubated for 4 hrs measured after 0.5 hrs of TNFalpha challenge by electrophoretic shift mobility assay. The assay is classed as cell-based. The note with it: Homo sapiens.
The subject of assay [16] is HUVEC. Nature of the assay: Effect on TNF-alpha-induced TFkappaB activation assessed as p65/p50 binding to TFkappaB in HUVEC preincubated for 4 hrs measured after 0.5 hrs of TNFalpha challenge by electrophoretic shift mobility assay. The note with it: Homo sapiens. Type of assay: cell-based.
The target in assay [17] is T1, Tissue factor (Mus musculus) (UniProt P20352).
T1 sequence (whole entry): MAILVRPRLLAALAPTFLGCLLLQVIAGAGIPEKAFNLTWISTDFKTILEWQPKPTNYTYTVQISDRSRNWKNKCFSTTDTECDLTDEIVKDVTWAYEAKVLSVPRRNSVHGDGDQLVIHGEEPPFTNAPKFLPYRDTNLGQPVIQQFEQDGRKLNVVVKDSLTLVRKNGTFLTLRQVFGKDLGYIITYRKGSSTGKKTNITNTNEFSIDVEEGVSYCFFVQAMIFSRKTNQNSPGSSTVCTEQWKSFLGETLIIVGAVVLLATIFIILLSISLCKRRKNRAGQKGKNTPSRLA
Put plainly: Inhibition of LPS-induced tissue factor activity in C57BL/6J mouse macrophages preincubated for 4 hrs assessed after 5 hrs of LPS challenge by one stage clotting assay. As to conditions: concentration not given here.

For assay [18], the target named is T1, Tissue factor (Mus musculus). Nature of the assay: Inhibition of TNF-alpha-induced tissue factor activity in C57BL/6J mouse macrophages preincubated for 4 hrs assessed after 5 hrs of TNFalpha challenge by one stage clotting assay. The note with it: concentration not given here.
Assay [19] has the same target. Nature of the assay: Inhibition of IL-1-beta-induced tissue factor activity in C57BL/6J mouse macrophages preincubated for 4 hrs assessed after 5 hrs of IL1-beta challenge by one stage clotting assay. As to conditions: concentration not given here.
Assay [20] concerns HUVEC. Put plainly: Reduction of ICAM1 mRNA level in TNF-alpha-stimulated HUVEC at 1 uM preincubated for 4 hrs assessed after 1 to 2 hrs of TNFalpha challenge by RT-PCR. Type of assay: functional, cell-based. As to conditions: Homo sapiens.
Assay [21] addresses T1, Tissue factor (Mus musculus). Nature of the assay: Inhibition of baseline tissue factor activity in non-stimulated C57BL/6J mouse macrophages after 4 hrs by one stage clotting assay. As to conditions: concentration not given here.
The test system of a further assay is Mus musculus. Nature of the assay: Decrease in thioglycolate-induced tissue factor activity in C57BL/6J mouse macrophage at 1 mg/kg, ip preincubated for 4 hrs assessed after 5 hrs of thioglycolate challenge by one stage clotting assay. As to conditions: route intraperitoneal. Further details: scale not given: the % may be the effect or the level left. The assay is classed as functional.

For assay [22], the system named is HUVEC. Nature of the assay: Reduction of tissue factor mRNA level in TNF-alpha-stimulated HUVEC at 1 uM preincubated for 4 hrs assessed after 1 to 2 hrs of TNFalpha challenge by RT-PCR. The note with it: Homo sapiens. Type of assay: functional, cell-based.
Assay [23] relates to HUVEC. Nature of the assay: Effect on TNF-alpha-induced NF-kappaB activation in HUVEC preincubated for 4 hrs assessed as increase in p50 level after 0.5 hrs of TNFalpha challenge by electrophoretic shift mobility assay. Type of assay: cell-based. As to conditions: Homo sapiens.
The subject of assay [24] is HUVEC. Put plainly: Effect on TNF-alpha-induced SP1 protein level in HUVEC preincubated for 4 hrs assessed after 0.5 hrs of TNFalpha challenge by Western blotting. Type of assay: functional, cell-based. As to conditions: Homo sapiens.
Assay [25] concerns HUVEC. Nature of the assay: Effect on TNF-alpha-induced Egr1 protein level in HUVEC preincubated for 4 hrs assessed after 0.5 hrs of TNFalpha challenge by Western blotting. Type of assay: functional, cell-based. The note with it: Homo sapiens.
Assay [26] relates to HUVEC. Put plainly: Inhibition of TNF-alpha-induced p65 binding to TFkappaB in HUVEC preincubated for 4 hrs assessed after 0.5 hrs of TNFalpha challenge by chromatin immunoprecipitation assay. Type of assay: cell-based. As to conditions: Homo sapiens.
The subject of assay [27] is HUVEC. Nature of the assay: Inhibition of TNF-alpha-induced p65 binding to ICAM1 NF-kappaB in HUVEC preincubated for 4 hrs assessed after 0.5 hrs of TNFalpha challenge by chromatin immunoprecipitation assay. The assay is classed as cell-based. The note with it: Homo sapiens.
Assay [28] deals with HUVEC. Nature of the assay: Effect on TNF-alpha-induced wild type NF-kappaB-dependent ICAM1 promoter expression in HUVEC preincubated for 4 hrs assessed after 6 hrs of TNFalpha challenge by luciferase reporter assay. The note with it: Homo sapiens. The assay is classed as cell-based. On the technique in general: A reporter such as luciferase makes a cellular process visible.

The test system of assay [29] is HUVEC. Nature of the assay: Effect on LPS-induced wild type NF-kappaB-dependent ICAM1 promoter expression in HUVEC preincubated for 4 hrs assessed after 6 hrs of LPS challenge by luciferase reporter assay. The assay is classed as cell-based. The note with it: Homo sapiens.
In assay [30] the test system is HUVEC. Put plainly: Inhibition of LPS-induced wild type TFkappaB-dependent tissue factor promoter expression in HUVEC preincubated for 4 hrs assessed after 6 hrs of LPS challenge by luciferase reporter assay. The assay is classed as cell-based. The note with it: Homo sapiens.
Assay [31] concerns HUVEC. Nature of the assay: Inhibition of TNFalpha induced wild type TFkappaB-dependent tissue factor promoter expression in HUVEC preincubated for 4 hrs assessed after 6 hrs of TNFalpha challenge by luciferase reporter assay. The assay is classed as cell-based. As to conditions: Homo sapiens.
The test system of assay [32] is HUVEC. Nature of the assay: Induction of PMA-induced wild type TFkappaB-dependent tissue factor promoter expression in HUVEC at 100 nM preincubated for 4 hrs assessed after 6 hrs of PMA challenge by luciferase reporter assay. The assay is classed as cell-based. The note with it: Homo sapiens.
Assay [33] has as its system HUVEC. Put plainly: Induction of PMA-induced wild type NF-kappaB-dependent ICAM promoter expression in HUVEC preincubated for 4 hrs assessed after 6 hrs of PMA challenge by luciferase reporter assay relative to control. Type of assay: cell-based. As to conditions: Homo sapiens.
The test system of assay [34] is HUVEC. Put plainly: Inhibition of LPS-induced tissue factor protein expression in HUVEC preincubated for 4 hrs assessed after 4 hrs of LPS challenge by Western blotting. Type of assay: functional, cell-based. The note with it: Homo sapiens.
In assay [35] the test system is HUVEC. Nature of the assay: Inhibition of TNF-alpha-induced tissue factor protein expression in HUVEC preincubated for 4 hrs assessed after 4 hrs of TNFalpha challenge by Western blotting. The assay is classed as functional, cell-based. The note with it: Homo sapiens.
Assay [36] deals with HUVEC. Nature of the assay: Effect on TNF-alpha-induced NF-kappaB activation assessed as p65/p50 binding to NF-kappaB in HUVEC at 0.3 uM preincubated for 4 hrs measured after 0.5 hrs of TNFalpha challenge by electrophoretic shift mobility assay. The assay is classed as cell-based. The note with it: Homo sapiens.
For assay [37], the system named is HUVEC. Nature of the assay: Effect on TNF-alpha-induced NF-kappaB activation assessed as p65/p50 binding to NF-kappaB in HUVEC at 1 uM preincubated for 4 hrs measured after 0.5 hrs of TNFalpha challenge by electrophoretic shift mobility assay. The assay is classed as cell-based. As to conditions: Homo sapiens.
For assay [38], the target named is Tissue factor (Homo sapiens) (UniProt P13726). Put plainly: Inhibition of TNF-alpha-induced tissue factor activity in HUVEC at 1 uM preincubated for 4 hrs assessed after 4 hrs of TNFalpha challenge by one stage clotting assay. The assay is classed as cell-based.
Assay [39] concerns HUVEC. Put plainly: Inhibition of IL-1-beta-induced tissue factor protein expression in HUVEC preincubated for 4 hrs assessed after 4 hrs of IL1-beta challenge by Western blotting. Type of assay: functional, cell-based. The note with it: Homo sapiens.
For assay [40], the system named is HUVEC. Put plainly: Inhibition of HOSCN-induced tissue factor protein expression in HUVEC preincubated for 4 hrs assessed after 4 hrs of HOSCN challenge by Western blotting. Type of assay: functional, cell-based. As to conditions: Homo sapiens.

SMILES strings stand for the structures. Calls of active or inactive are those of the source. The calls are words filed in the database; no cut-off is given here.

Sequence of Tissue factor (Homo sapiens) (P13726 whole entry): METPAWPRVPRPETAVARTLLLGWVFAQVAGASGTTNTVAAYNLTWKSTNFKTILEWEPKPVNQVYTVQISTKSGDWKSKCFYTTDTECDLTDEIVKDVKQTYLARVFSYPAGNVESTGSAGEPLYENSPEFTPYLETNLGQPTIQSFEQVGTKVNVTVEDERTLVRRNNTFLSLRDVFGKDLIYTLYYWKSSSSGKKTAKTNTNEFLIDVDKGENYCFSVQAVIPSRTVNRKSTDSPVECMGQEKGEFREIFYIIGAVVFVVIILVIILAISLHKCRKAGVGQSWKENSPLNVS

With `CCCC(=O)[O-].[Na+]`, the inhibition (usually the drop in the measured response relative to a control, in per cent) worked out at 90% in [1] and 95% in [2].

For `CCCC(CCC)C(=O)O`, the figures for the inhibition in assay [3] and in assay [4] were 81% and 93%, respectively.

Consider `Nc1ccccc1NC(=O)c1ccc(CNC(=O)OCc2cccnc2)cc1`, for which the inhibition in assay [5] amounted to 85%; in [6], 92%.

Consider `CCC(=O)CCCCC[C@@H]1NC(=O)[C@H]2CCCCN2C(=O)[C@H](C(C)CC)NC(=O)[C@H](Cc2cn(OC)c3ccccc23)NC1=O` (single isomer, unassigned), for which the results for the inhibition in assay [7] and in [8] were 80% and 85%, respectively.

In the case of `CC(/C=C/C(=O)NO)=C\[C@@H](C)C(=O)c1ccc(N(C)C)cc1` [TRICHOSTATIN], the inhibition is 91% in assay [9]; 60% in assay [17]; 60% in assay [18]; 60% in assay [19]; 60% in assay [21]; 95% in assay [38]. Besides, the result with HUVEC [10], with HUVEC [11], with HUVEC [14], in the assay with HUVEC [20], with HUVEC [23] and in the assay on HUVEC [24] was inactive. The outcome in the assay with HUVEC [25], in the assay with HUVEC [27], in the assay with HUVEC [28], in the assay on HUVEC [29], in the assay with HUVEC [33] and in the assay with HUVEC [36] was inactive. Further, the result in the assay with HUVEC [37] was inactive. Besides, the result in the assay with HUVEC [12], with HUVEC [13], with HUVEC [15], with HUVEC [16], with HUVEC [22] and in the assay with HUVEC [26] was Active. Further, the outcome in the assay with HUVEC [30], with HUVEC [31], in the assay on HUVEC [34], with HUVEC [35], in the assay with HUVEC [39] and in the assay with HUVEC [40] was Active. In addition, the Activity in the assay on Mus musculus was 50%; with HUVEC [32] it was 75%.

The values are drawn from ChEMBL document CHEMBL1156493, “Histone deacetylase inhibitors suppress TF-kappaB-dependent agonist-driven tissue factor expression in endothelial cells and monocytes” (J Biol Chem, 2007).
